Patent US10030047B2 (Hoffmann-La Roche Inc., priority 2015, dated 2018)
Values after ≈ are worked out from the molar mass of the structure shown.

The molecules below were run on A. baumannii strain ATCC19606 (assay: Minimum inhibitory concentration (MIC) determination, microbroth dilution (CLSI)). Settings: Acinetobacter baumannii; A. baumannii ATCC19606; CAMHB; read after 20 hours; >=80% growth inhibition; read-out: ATCC19606 MIC.
Assay type: cell-based
Method in brief: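 CLSI broth microdilution in cation-adjusted Mueller Hinton broth with twofold compound dilutions and ~5×10^5 CFU/ml inoculum, incubated at 35±2 °C. MIC read after 20 h as lowest concentration inhibiting ≥80% of growth, by eye and OD 600 nm.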

MIC [µg/mL] | SMILES
2 (≈ 2.65 µM) | CN1C(=O)[C@H](CCCCN)NC(=O)[C@H](CCC(N)=O)NCc2cccnc2Sc2c(Cl)ccc(Cl)c2CNC(=O)[C@@H]1Cc1c[nH]c2ccccc12 [Example 121, 3-[(11S,14S,17S)-14-(4-Amino-butyl)-22,25-dichloro-17-(1H-indol-3-ylmethyl)-16-methyl-12,15,18-trioxo-2-thia-4,10,13,16,19-pentaaza-tricyclo[19.4.0.0*3,8*]pentacosa-1(25),3,5,7,21,23-hexaen-11-yl]-propionamide]
1 (≈ 1.29 µM) | CN1C(=O)[C@H](CCCCN)NC(=O)[C@H](CCCN)NCc2ccncc2Sc2c(Cl)ccc(C(F)(F)F)c2CNC(=O)[C@@H]1Cc1c[nH]c2ccccc12 [Example 122, (11S,14S,17S)-14-(4-Amino-butyl)-11-(3-amino-propyl)-25-chloro-17-(1H-indol-3-ylmethyl)-16-methyl-22-trifluoromethyl-2-thia-5,10,13,16,19-pentaaza-tricyclo[19.4.0.0*3,8*]pentacosa-1(25),3,5,7,21,23-hexaene-12,15,18-trione]
0.25 (≈ 0.32 µM) | CN1C(=O)[C@H](CCCCN)NC(=O)[C@H](CCCN)NCc2cccnc2Sc2c(Cl)ccc(-c3ccccc3)c2CNC(=O)[C@@H]1Cc1c[nH]c2ccccc12 [Example 129, (11S,14S,17S)-14-(4-Amino-butyl)-11-(3-amino-propyl)-25-chloro-17-(1H-indol-3-ylmethyl)-16-methyl-22-phenyl-2-thia-4,10,13,16,19-pentaaza-tricyclo[19.4.0.0*3,8*]pentacosa-1(25),3(8),4,6,21,23-hexaene-12,15,18-trione]
1 (≈ 1.29 µM) | CN1C(=O)[C@H](CCCCN)NC(=O)[C@H](CCCN)NCc2cccnc2Sc2c(Cl)cc(N3CCCC3)cc2CNC(=O)[C@@H]1Cc1c[nH]c2ccccc12 [Example 130, (11S,14S,17S)-14-(4-Amino-butyl)-11-(3-amino-propyl)-25-chloro-17-(1H-indol-3-ylmethyl)-16-methyl-23-pyrrolidin-1-yl-2-thia-4,10,13,16,19-pentaaza-tricyclo[19.4.0.0*3,8*]pentacosa-1(25),3(8),4,6,21,23-hexaene-12,15,18-trione]
0.25 (≈ 0.316 µM) | CN1C(=O)[C@H](CCCCN)NC(=O)[C@H](CCCN)NCc2cccnc2Sc2c(Cl)ccc(C(F)(F)F)c2CNC(=O)[C@@H]1Cc1c[nH]c2ccc(F)cc12 [Example 131, (11S,14S,17S)-14-(4-Amino-butyl)-11-(3-amino-propyl)-25-chloro-17-(5-fluoro-1H-indol-3-ylmethyl)-16-methyl-22-trifluoromethyl-2-thia-4,10,13,16,19-pentaaza-tricyclo[19.4.0.0*3,8*]pentacosa-1(25),3,5,7,21,23-hexaene-12,15,18-trione]
32 (≈ 39.8 µM) | CN1C(=O)[C@H](CCCCN)NC(=O)[C@H](CCC(N)=O)NCc2cccnc2Sc2c(Cl)cc(N3CCOCC3)cc2CNC(=O)[C@@H]1Cc1c[nH]c2ccccc12 [Example 137, 3-[(11S,14S,17S)-14-(4-Amino-butyl)-25-chloro-17-(1H-indol-3-ylmethyl)-16-methyl-23-morpholin-4-yl-12,15,18-trioxo-2-thia-4,10,13,16,19-pentaaza-tricyclo[19.4.0.0*3,8*]pentacosa-1(25),3(8),4,6,21,23-hexaen-11-yl]-propionamide]
0.5 (≈ 0.635 µM) | CN1C(=O)[C@H](CCCCN)NC(=O)[C@H](CCCN)NCc2cccnc2Sc2c(Cl)cc(C3=CCOCC3)cc2CNC(=O)[C@@H]1Cc1c[nH]c2ccccc12 [Example 138, (11S,14S,17S)-14-(4-Amino-butyl)-11-(3-amino-propyl)-25-chloro-23-(3,6-dihydro-2H-pyran-4-yl)-17-(1H-indol-3-ylmethyl)-16-methyl-2-thia-4,10,13,16,19-pentaaza-tricyclo[19.4.0.0*3,8*]pentacosa-1(25),3(8),4,6,21,23-hexaene-12,15,18-trione]
0.12 (≈ 0.152 µM) | CN1C(=O)[C@H](CCCCN)NC(=O)[C@H](CCCN)NCc2cccnc2Sc2c(Cl)ccc(N3CCOCC3)c2CNC(=O)[C@@H]1Cc1c[nH]c2ccccc12 [Example 147, (11S,14S,17S)-14-(4-Amino-butyl)-11-(3-amino-propyl)-25-chloro-17-(1H-indol-3-ylmethyl)-16-methyl-22-morpholin-4-yl-2-thia-4,10,13,16,19-pentaaza-tricyclo[19.4.0.0*3,8*]pentacosa-1(25),3(8),4,6,21,23-hexaene-12,15,18-trione]
8 (≈ 10.2 µM) | CN1C(=O)[C@H](CCCCN)NC(=O)[C@H](CCCN)NCc2cccnc2Sc2c(Cl)cc(-c3ccnnc3)cc2CNC(=O)[C@@H]1Cc1c[nH]c2ccccc12 [Example 148, (11S,14S,17S)-14-(4-Amino-butyl)-11-(3-amino-propyl)-25-chloro-17-(1H-indol-3-ylmethyl)-16-methyl-23-pyridazin-4-yl-2-thia-4,10,13,16,19-pentaaza-tricyclo[19.4.0.0*3,8*]pentacosa-1(25),3(8),4,6,21,23-hexaene-12,15,18-trione]
1 (≈ 1.28 µM) | CN1C(=O)[C@H](CCCCN)NC(=O)[C@H](CCCN)NCc2cccnc2Sc2c(Cl)cc(-c3ccccc3)cc2CNC(=O)[C@@H]1Cc1c[nH]c2ccccc12 [Example 149]
1 (≈ 1.28 µM) | CN1C(=O)[C@H](CCCCN)NC(=O)[C@H](CCCN)NCc2cccnc2Sc2c(Cl)cc(-c3ccccn3)cc2CNC(=O)[C@@H]1Cc1c[nH]c2ccccc12 [Example 150, (11S,14S,17S)-14-(4-Amino-butyl)-11-(3-amino-propyl)-25-chloro-17-(1H-indol-3-ylmethyl)-16-methyl-23-pyridin-2-yl-2-thia-4,10,13,16,19-pentaaza-tricyclo[19.4.0.0*3,8*]pentacosa-1(25),3(8),4,6,21,23-hexaene-12,15-18-trione]

The next lines start with the molecule.

SMILES | MIC [µg/mL]
CN1C(=O)[C@H](CCCCN)NC(=O)[C@H](CCCN)NCc2ccncc2Sc2c(Cl)cc(C(F)(F)F)cc2CNC(=O)[C@@H]1Cc1c[nH]c2ccccc12 [Example 123, (11S,14S,17S)-14-(4-Amino-butyl)-11-(3-amino-propyl)-25-chloro-17-(1H-indol-3-ylmethyl)-16-methyl-23-trifluoromethyl-2-thia-5,10,13,16,19-pentaaza-tricyclo[19.4.0.0*3,8*]pentacosa-1(25),3,5,7,21,23-hexaene-12,15,18-trione] | 1 (≈ 1.29 µM)
CN1C(=O)[C@H](CCCCN)NC(=O)[C@H](CC(N)=O)NCc2cccnc2Sc2c(Cl)cc(Cl)cc2CNC(=O)[C@@H]1Cc1c[nH]c2ccccc12 [Example 127, 2-[(11S,14S,17S)-14-(4-Amino-butyl)-23,25-dichloro-17-(1H-indol-3-ylmethyl)-16-methyl-12,15,18-trioxo-2-thia-4,10,13,16,19-pentaaza-tricyclo[19.4.0.0*3,8*]pentacosa-1(25),3(8),4,6,21,23-hexaen-11-yl]-acetamide] | 16 (≈ 21.6 µM)
CN1C(=O)[C@H](CCCCN)NC(=O)[C@H](CCCN)NCc2ccccc2Sc2c(cc(-c3ccccc3)cc2C(F)(F)F)CNC(=O)[C@@H]1Cc1c[nH]c2ccccc12 [Example 128, (12S,15,18S)-15-(4-Amino-butyl))-18-(3-amino-propyl)-12-(1H-indo-3-ylmethyl)-13-methyl-6-phenyl-4-trifluoromethyl-2-thia-10,13,16,19-tetraaza-tricyclo[19.4.0.0*3,8*]pentacosa-1(25),3,5,7,21,23-hexaene-11,14,17-trione] | 2 (≈ 2.46 µM)
COc1cc(-c2cc(Cl)c3c(c2)CNC(=O)[C@H](Cc2c[nH]c4ccccc24)N(C)C(=O)[C@H](CCCCN)NC(=O)[C@H](CCC(N)=O)NCc2cccnc2S3)ccn1 [Example 134, 3-[(11S,14S,17S)-14-(4-Amino-butyl)-25-chloro-17-(1H-indol-3-ylmethyl)-23-(2-methoxy-pyridin-4-yl)-16-methyl-12,15,18-trioxo-2-thia-4,10,13,16,19-pentaaza-tricyclo[19.4.0.0*3,8*]pentacosa-1 (25),3(8),4,6,21,23 exaen-11-yl]-propionamde] | 2 (≈ 2.42 µM)
CN1C(=O)[C@H](CCCCN)NC(=O)[C@H](CCCNC(=O)OCc2ccccc2)NCc2cccnc2Sc2c(Cl)ccc(Cl)c2CNC(=O)[C@@H]1Cc1c[nH]c2ccccc12 [Example 139, {3-[(11S,14S,17S)-14-(4-Amino-butyl)-22,25-dichloro-17-(1H-indol-3-ylmethyl)-16-methyl-12,15,18-trioxo-2-thia-4,10,13,16,19-pentaaza-tricyclo[19.4.0.0*3,8*]pentacosa-1(25),3(8),4,6,21,23-hexaen-11-yl]-propyarbamic acid benzyl ester] | 2 (≈ 2.29 µM)
CN1C(=O)[C@H](CCCCN)NC(=O)[C@H](CCCN)NCc2ccccc2Sc2c(Cl)cc(-c3ccn(C)n3)cc2CNC(=O)[C@@H]1Cc1c[nH]c2ccccc12 [Example 144, (12S,15S,18S)-15-(4-Amino-butyl)-18-(3-amino-propyl)-4-chloro-12-(1H-indol-3-ylmethyl)-13-methyl-6-(1-methyl-1H-pyrazol-3-yl)-2-thia-10,13,16,19-tetraaza-tricyclo[19.4.0.0*3,8*]pentacosa-1(25),3,5,7,21,23-hexaene-11,14,17-trione] | 1 (≈ 1.27 µM)
Cc1cc(-c2cc(Cl)c3c(c2)CNC(=O)[C@H](Cc2c[nH]c4ccccc24)N(C)C(=O)[C@H](CCCCN)NC(=O)[C@H](CCC(N)=O)NCc2cccnc2S3)ccn1 [Example 145, 3-[(11S,14S,17S)-14-(4-Amino-butyl)-25-chloro-17-(1H-indol-3-ylmethyl)-16-methyl-23-(2-methyl-pyridin-4-yl)-12,15,18-trioxo-2-thia-4,10,13,16,19-pentaaza-tricyclo[19.4.0.0*3,8*]pentacosa-1(25),3(8),4,6,21,23-hexaen-1l-yl]-propionamide] | 4 (≈ 4.94 µM)
CN1C(=O)[C@H](CCCCN)NC(=O)[C@H](CCCN)NCc2cccnc2Sc2c(Cl)cc(-c3cnccn3)cc2CNC(=O)[C@@H]1Cc1c[nH]c2ccccc12 [Example 146, (11S,14S,17S)-14-(4-Amino-butyl)-11-(3-amino-propyl)-25-chloro-17-(1H-indol-3-ylmethyl)-16-methyl-23-pyrazin-2-yl-2-thia-4,10,13,16,19-pentaaza-tricyclo[19.4.0.0*3,8*]pentacosa-1(25),3(8),4,6,21,23-hexaene-12,15,18-trione] | 1 (≈ 1.28 µM)
